Source: patent publication US20230114728A1 (Venatorx Pharmaceuticals, Inc., priority 2019, published 2023)
Values after ≈ are worked out from the molar mass of the structure shown.

Legend:
P. aeruginosa PBP3 = molecular target: T1, P. aeruginosa PBP3 (Pseudomonas aeruginosa, UniProt G3XD46); assay: Bocillin-FL fluorescence polarization competition binding assay, P. aeruginosa PBP3; conditions: fluorescence polarization competition binding assay using Bocillin-FL
T1 construct: made in house
Outline: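 Inhibitor competition with Bocillin-FL for P. aeruginosa PBP3 was followed by fluorescence polarization on a Cytation3 (BioTek) reader, using g-factor 0.96, 490 nm excitation and 520 nm emission. The enzyme was at 0.75 μM and the probe at 0.1 μM in Hepes/NaCl/glycerol buffer, 80 μl per well. FP was recorded immediately after probe addition for up to 60 minutes. Potency was expressed as EC50, the concentration that reduces bound probe by 50%.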

N. gonorrhoeae WHO Q = assay: Liquid broth MIC in Fastidious broth; assay type: cell-based; conditions: Neisseria gonorrhoeae, read-out: Minimum Inhibitory Concentration, N. gonorrhoeae WHO Q
Outline: (§1)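 Colonies were swabbed from chocolate agar after 24 h growth and standardised by optical density at 600 nm. Compounds were serially diluted twofold in Fastidious broth, and bacteria added to give 5×10^5 CFU/mL. After about 24 h at 36 °C in 5% CO2, the lowest concentration allowing under 10% growth was taken as MIC.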

N. gonorrhoeae WHO Z = assay: Liquid broth MIC in Fastidious broth; assay type: cell-based; conditions: Neisseria gonorrhoeae, read-out: Minimum Inhibitory Concentration, N. gonorrhoeae WHO Z
Outline: as §1

T1 sequence (G3XD46 whole entry): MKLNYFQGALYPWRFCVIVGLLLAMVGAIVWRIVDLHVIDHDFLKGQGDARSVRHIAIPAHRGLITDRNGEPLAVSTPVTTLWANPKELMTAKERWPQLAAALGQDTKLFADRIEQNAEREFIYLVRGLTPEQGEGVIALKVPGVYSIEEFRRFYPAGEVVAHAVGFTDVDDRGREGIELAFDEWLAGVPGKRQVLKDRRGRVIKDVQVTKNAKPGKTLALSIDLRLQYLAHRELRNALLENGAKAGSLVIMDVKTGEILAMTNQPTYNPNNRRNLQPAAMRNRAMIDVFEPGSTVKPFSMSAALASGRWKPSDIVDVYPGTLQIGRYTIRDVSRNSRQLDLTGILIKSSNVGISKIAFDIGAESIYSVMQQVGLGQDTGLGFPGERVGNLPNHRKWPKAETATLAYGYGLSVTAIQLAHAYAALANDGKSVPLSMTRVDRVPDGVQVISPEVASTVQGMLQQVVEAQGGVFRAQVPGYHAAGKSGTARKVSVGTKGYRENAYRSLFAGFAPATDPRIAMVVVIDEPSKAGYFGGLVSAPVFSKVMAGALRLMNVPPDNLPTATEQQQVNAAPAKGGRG

Row | SMILES | P. aeruginosa PBP3 Potency (P. aeruginosa PBP3) | MIC (N. gonorrhoeae WHO Q) [µg/mL] | MIC (N. gonorrhoeae WHO Z) [µg/mL]
1 | CCN1CCN(C(=O)N[C@H](C(=O)N[C@H]2Cc3cccc(C(=O)O)c3OB2O)c2cc(O)cc(O)c2)C(=O)C1=O (single isomer, unassigned) [Example 81] | B (B represents a potency between 30 μM and 500 μM inclusive) | 16 to 32 (≈ 29.6 to 59.2 µM) | 16 to 32 (≈ 29.6 to 59.2 µM)
2 | CCN1CCN(C(=O)N[C@@H](C(=O)N[C@H]2Cc3cccc(C(=O)O)c3OB2O)c2cc(O)cc(O)c2)C(=O)C1=O (single isomer, unassigned) [Example 82] | D (D represents a potency <10 μM) | 4 to 8 (≈ 7.4 to 14.8 µM) | 4 to 8 (≈ 7.4 to 14.8 µM)
3 | NCCN1CCN(C(=O)N[C@H](C(=O)N[C@H]2Cc3cccc(C(=O)O)c3OB2O)c2ccc(C(=O)O)cc2)C(=O)C1=O (single isomer, unassigned) [Example 83] | C (C represents a potency between 10 and 30 μM) | > 64 | > 64
4 | NCCN1CCN(C(=O)N[C@H](C(=O)N[C@H]2Cc3cccc(C(=O)O)c3OB2O)c2ccc(O)cc2F)C(=O)C1=O (single isomer, unassigned) [Example 88] | C (C represents a potency between 10 and 30 μM) | > 64 | > 64
5 | NCCN1CCN(C(=O)N[C@@H](C(=O)N[C@H]2Cc3cccc(C(=O)O)c3OB2O)c2ccc(O)cc2F)C(=O)C1=O (single isomer, unassigned) [Example 89] | D (D represents a potency <10 μM) | > 64 | > 64
6 | CCN1CCN(C(=O)N[C@@H](C(=O)N[C@H]2Cc3cccc(C(=O)O)c3OB2O)c2cc(Cl)c(O)cc2Cl)C(=O)C1=O (single isomer, unassigned) [Example 91] | D (D represents a potency <10 μM) | 16 to 32 (≈ 27 to 53.9 µM) | 16 to 32 (≈ 27 to 53.9 µM)
7 | CCN1CCN(C(=O)N[C@H](C(=O)N[C@H]2Cc3cccc(C(=O)O)c3OB2O)c2cc(Cl)c(O)cc2Cl)C(=O)C1=O (single isomer, unassigned) [Example 92] | B (B represents a potency between 30 μM and 500 μM inclusive) | > 64 | > 64
8 | CCN1CCN(C(=O)NC(C(=O)N[C@H]2Cc3cccc(C(=O)O)c3OB2O)c2ccc(C(N)=O)c(O)c2)C(=O)C1=O (stereo partly drawn) [Example 45, (3R)-3-(2-(4-carbamoyl-3-hydroxyphenyl)-2-(4-ethyl-2,3-dioxopiperazine-1-carboxamido)acetamido)-2-hydroxy-3,4-dihydro-2H-benzo[e][1,2]oxaborinine-8-carboxylic acid] | D (D represents a potency <10 μM) | 16 to 32 (≈ 28.2 to 56.4 µM) | 16 to 32 (≈ 28.2 to 56.4 µM)
9 | NC(=O)c1ccc(C(NC(=O)N2CCN(CCF)C(=O)C2=O)C(=O)N[C@H]2Cc3cccc(C(=O)O)c3OB2O)cc1O (stereo partly drawn) [Example 46, (3R)-3-(2-(4-carbamoyl-3-hydroxyphenyl)-2-(4-(2-fluoroethyl)-2,3-dioxopiperazine-1-carboxamido)acetamido)-2-hydroxy-3,4-dihydro-2H-benzo[e][1,2]oxaborinine-8-carboxylic acid] | D (D represents a potency <10 μM) | 16 to 32 (≈ 27.3 to 54.7 µM) | 16 to 32 (≈ 27.3 to 54.7 µM)
10 | NCCCN1CCN(C(=O)NC(C(=O)N[C@H]2Cc3cccc(C(=O)O)c3OB2O)c2ccc(C(N)=O)c(O)c2)C(=O)C1=O (stereo partly drawn) [Example 47, (3R)-3-(2-(4-(3-aminopropyl)-2,3-dioxopiperazine-1-carboxamido)-2-(4-carbamoyl-3-hydroxyphenyl)acetamido)-2-hydroxy-3,4-dihydro-2H-benzo[e][1,2]oxaborinine-8-carboxylic acid] | D (D represents a potency <10 μM) | > 64 | > 64
11 | CCN1CCN(C(=O)NC(C(=O)N[C@H]2Cc3cccc(C(=O)O)c3OB2O)c2ccc(C(=O)O)c(OC)c2)C(=O)C1=O (stereo partly drawn) [Example 48, (3R)-3-(2-(4-carboxy-3-methoxyphenyl)-2-(4-ethyl-2,3-dioxopiperazine-1-carboxamido)acetamido)-2-hydroxy-3,4-dihydro-2H-benzo[e][1,2]oxaborinine-8-carboxylic acid] | D (D represents a potency <10 μM) | 4 to 8 (≈ 6.87 to 13.7 µM) | 1 to 2 (≈ 1.72 to 3.43 µM)
12 | O=C(NC(C(=O)N[C@H]1Cc2ccc(F)c(C(=O)O)c2OB1O)c1ncc(O)cc1F)c1ccnc(F)c1 (stereo partly drawn) [Example 53, (3R)-7-fluoro-3-(2-(3-fluoro-5-hydroxypyridin-2-yl)-2-(2-fluoroisonicotinamido)acetamido)-2-hydroxy-3,4-dihydro-2H-benzo[e][1,2]oxaborinine-8-carboxylic acid] | D (D represents a potency <10 μM) | > 64 | > 64
13 | CCN1CCN(C(=O)NC(C(=O)N[C@H]2Cc3ccc(C=O)c(C(=O)O)c3OB2O)c2csc(N)n2)C(=O)C1=O (stereo partly drawn) [Example 57, (3R)-3-(2-(2-aminothiazol-4-yl)-2-(4-ethyl-2,3-dioxopiperazine-1-carboxamido)acetamido)-7-formyl-2-hydroxy-3,4-dihydro-2H-benzo[e][1,2]oxaborinine-8-carboxylic acid] | C (C represents a potency between 10 and 30 μM) | > 64 | > 64
14 | CCN1CCN(C(=O)NC(C(=O)N[C@H]2Cc3ccc(CO)c(C(=O)O)c3OB2O)c2csc(N)n2)C(O)C1=O (stereo partly drawn) [Example 58, (3R)-3-(2-(2-aminothiazol-4-yl)-2-(4-ethyl-2-hydroxy-3-oxopiperazine-1-carboxamido)acetamido)-2-hydroxy-7-(hydroxymethyl)-3,4-dihydro-2H-benzo[el][1,2]oxaborinine-8-carboxylic acid] | B (B represents a potency between 30 μM and 500 μM inclusive) | > 64 | > 64
15 | CCN1CCN(C(=O)NC(C(=O)N[C@H]2Cc3ccc(OCCN)c(C(=O)O)c3OB2O)c2ccccc2)C(=O)C1=O (stereo partly drawn) [Example 60, (3R)-7-(2-aminoethoxy)-3-(2-(4-ethyl-2,3-dioxopiperazine-1-carboxamido)-2-phenylacetamido)-2-hydroxy-3,4-dihydro-2H-benzo[e][1,2]oxaborinine-8-carboxylic acid] | C (C represents a potency between 10 and 30 μM) | > 64 | > 64
16 | CCN1CCN(C(=O)NC(C(=O)N[C@H]2Cc3cccc(C(=O)O)c3OB2O)c2cccc(O)c2)C(=O)C1=O (stereo partly drawn) [Example 68, (3R)-3-(2-(4-ethyl-2,3-dioxopiperazine-1-carboxamido)-2-(3-hydroxyphenyl)acetamido)-2-hydroxy-3,4-dihydro-2H-benzo[e][1,2]oxaborinine-8-carboxylic acid] | D (D represents a potency <10 μM) | > 64 | 16 to 32 (≈ 30.5 to 61 µM)
17 | CCN1CCN(C(=O)NC(C(=O)N[C@H]2Cc3cccc(C(=O)O)c3OB2O)c2ccc(O)cc2O)C(=O)C1=O (stereo partly drawn) [Example 69, (3R)-3-(2-(2,4-dihydroxyphenyl)-2-(4-ethyl-2,3-dioxopiperazine-1-carboxamido)acetamido)-2-hydroxy-3,4-dihydro-2H-benzo[e][1,2]oxaborinine-8-carboxylic acid] | C (C represents a potency between 10 and 30 μM) | > 64 | 16 to 32 (≈ 29.6 to 59.2 µM)
18 | CCN1CCN(C(=O)NC(C(=O)N[C@H]2Cc3cccc(C(=O)O)c3OB2O)c2ccc(O)cc2OC)C(=O)C1=O (stereo partly drawn) [Example 70, (3R)-3-(2-(4-ethyl-2,3-dioxopiperazine-1-carboxamido)-2-(4-hydroxy-2-methoxyphenyl)acetamido)-2-hydroxy-3,4-dihydro-2H-benzo[e][1,2]oxaborinine-8-carboxylic acid] | D (D represents a potency <10 μM) | > 64 | > 64
19 | CCN1CCN(C(=O)NC(C(=O)N[C@H]2Cc3cccc(C(=O)O)c3OB2O)c2cccc(N)c2)C(=O)C1=O (stereo partly drawn) [Example 72, (3R)-3-(2-(3-aminophenyl)-2-(4-ethyl-2,3-dioxopiperazine-1-carboxamido)acetamido)-2-hydroxy-3,4-dihydro-2H-benzo[e][1,2]oxaborinine-8-carboxylic acid] | D (D represents a potency <10 μM) | 16 to 32 (≈ 30.6 to 61.1 µM) | 16 to 32 (≈ 30.6 to 61.1 µM)
20 | CCN1CCN(C(=O)NC(C(=O)N[C@H]2Cc3cccc(C(=O)O)c3OB2O)c2cccc([N+](=O)[O-])c2)C(=O)C1=O (stereo partly drawn) [Example 75, (3R)-3-(2-(4-ethyl-2,3-dioxopiperazine-1-carboxamido)-2-(3-nitrophenyl)acetamido)-2-hydroxy-3,4-dihydro-2H-benzo[e][1,2]oxaborinine-8-carboxylic acid] | D (D represents a potency <10 μM) | 16 to 32 (≈ 28.9 to 57.8 µM) | 16 to 32 (≈ 28.9 to 57.8 µM)
21 | CCN1CCN(C(=O)NC(C(=O)N[C@H]2Cc3cccc(C(=O)O)c3OB2O)c2cccc(NS(C)(=O)=O)c2)C(=O)C1=O (stereo partly drawn) [Example 76, (3R)-3-(2-(4-ethyl-2,3-dioxopiperazine-1-carboxamido)-2-(3-(methylsulfonamido)phenyl)acetamido)-2-hydroxy-3,4-dihydro-2H-benzo[e][1,2]oxaborinine-8-carboxylic acid] | D (D represents a potency <10 μM) | > 64 | > 64
